Source: patent publication US5140009A (Tap Pharmaceuticals, Inc., priority 1990, dated 1992)
Square brackets hold non-standard residues; d marks the D form. Peptide text beside a SMILES is read from it. * marks the point of attachment. Propanoyl(3-(3,4-F2Ph)) = O=C(CCc1ccc(F)c(F)c1)*; Propanoyl(3-(4-F-phenyl)) = O=C(CCc1ccc(F)cc1)*; Trp(5-F) = N[C@@H](Cc1c[nH]c2ccc(F)cc12)C(=O)O; dTrp(5-F) = N[C@H](Cc1c[nH]c2ccc(F)cc12)C(=O)O; Hydrocinnamoyl(2,4-F2) = O=C(CCc1ccc(F)cc1F)*; Propanoyl(3-(4-Cl-Ph)) = O=C(CCc1ccc(Cl)cc1)*; dPhe(4-Cl) = N[C@H](Cc1ccc(Cl)cc1)C(=O)O; 1Nal = N[C@@H](Cc1cccc2ccccc12)C(=O)O; d1Nal = N[C@H](Cc1cccc2ccccc12)C(=O)O; NMeY = CN[C@@H](Cc1ccc(O)cc1)C(=O)O; Nicotinoyl = O=C(c1cccnc1)*; X4 = O=C(CCc1cccc(F)c1)*

molecular target: T1, LHRH receptors (Rattus norvegicus, UniProt P30969); test: Receptor Binding (radioligand receptor binding assay); conditions: table 4; rat pituitary membranes, radioligand 50 pM, 2 hours at 4° C.; read-out: Receptor Binding pkI (converted)
T1 construct: Pituitary membranes containing LHRH receptors are prepared in batches from quick-frozen rat pituitaries; tissue Hilltop Labs; host or cells: rat pituitary membranes
T1 sequence (P30969 1-327): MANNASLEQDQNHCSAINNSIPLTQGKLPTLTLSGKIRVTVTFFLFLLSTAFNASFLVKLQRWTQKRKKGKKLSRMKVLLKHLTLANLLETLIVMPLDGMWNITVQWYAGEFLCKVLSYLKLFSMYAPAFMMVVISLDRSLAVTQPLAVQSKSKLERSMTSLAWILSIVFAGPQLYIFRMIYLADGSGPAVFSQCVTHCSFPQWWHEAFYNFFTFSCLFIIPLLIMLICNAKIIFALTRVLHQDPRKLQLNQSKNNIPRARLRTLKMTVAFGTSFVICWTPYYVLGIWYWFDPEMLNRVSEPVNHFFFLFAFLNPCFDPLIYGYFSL

Row | Compound | Ki [pM]
1 | CCNC(=O)[C@@H]1CCCN1C(=O)[C@H](CCCNC(=N)N)NC(=O)[C@H](CC(C)C)NC(=O)[C@@H](Cc1c[nH]c2ccccc12)NC(=O)[C@H](Cc1ccc(O)cc1)NC(=O)[C@H](CO)NC(=O)[C@@H](Cc1ccc(Cl)cc1)NC(=O)CCc1ccc(F)cc1 [Compound 140, (3-9) [N-(3-(4-Fluorophenyl)propionyl) -D-4-Cl-Phe^3 -D-Trp^6 -Pro^9 NHEt]LHRH] ({Propanoyl(3-(4-F-phenyl))}-[dPhe(4-Cl)]SY[dW]LRP-NHEt) | 89.1
2 | CCNC(=O)[C@@H]1CCCN1C(=O)[C@H](CCCN=C(N)N)NC(=O)[C@H](CC(C)C)NC(=O)[C@@H](Cc1c[nH]c2ccccc12)NC(=O)[C@H](Cc1ccc(O)cc1)NC(=O)[C@H](CO)NC(=O)[C@@H](Cc1ccc(O)cc1)NC(=O)CCc1ccc(F)cc1 [Compound 141, (3-9)[N-(3-(4-Fluorophenyl)propionyl) -D-Tyr^3 -D-Trp^6 -Pro^9 NHEt]LHRH] ({Propanoyl(3-(4-F-phenyl))}-[dY]SY[dW]LRP-NHEt) | 25.7
3 | CCNC(=O)[C@@H]1CCCN1C(=O)[C@H](CCCNC(=N)N)NC(=O)[C@H](CC(C)C)NC(=O)[C@@H](Cc1c[nH]c2ccccc12)NC(=O)[C@H](Cc1ccc(O)cc1)NC(=O)[C@H](CO)NC(=O)[C@H](Cc1c[nH]c2ccc(F)cc12)NC(=O)CCc1ccc(F)cc1 [Compound 142, (3-9)[N-(3-(4-Fluorophenyl)propionyl) -5-F-Trp^3 -D-Trp^6 -Pro^9 NHEt]LHRH] ({Propanoyl(3-(4-F-phenyl))}-[Trp(5-F)]SY[dW]LRP-NHEt) | 72.4
4 | CCNC(=O)[C@@H]1CCCN1C(=O)[C@H](CCCNC(=N)N)NC(=O)[C@H](CC(C)C)NC(=O)[C@@H](Cc1c[nH]c2ccccc12)NC(=O)[C@H](Cc1ccc(O)cc1)NC(=O)[C@H](CO)NC(=O)[C@@H](Cc1c[nH]c2ccc(F)cc12)NC(=O)CCc1ccc(F)cc1 [Compound 143, (3-9)[N-(3-(4-Fluorophenyl)propionyl)-D -5-F-Trp^3 -D-Trp^6 -Pro^9 NHEt]LHRH] ({Propanoyl(3-(4-F-phenyl))}-[dTrp(5-F)]SY[dW]LRP-NHEt) | 49
5 | CCNC(=O)[C@@H]1CCCN1C(=O)[C@H](CCCN=C(N)N)NC(=O)[C@H](CC(C)C)NC(=O)[C@@H](Cc1c[nH]c2ccccc12)NC(=O)[C@H](Cc1ccc(O)cc1)NC(=O)[C@H](CO)NC(=O)[C@H](Cc1cccc2ccccc12)NC(=O)CCc1ccc(F)cc1 [Compound 144, (3-9)[N-(3-(4-Fluorophenyl)propionyl) -1-Nal^3 -D-Trp^6 -Pro^9 NHEt]LHRH] ({Propanoyl(3-(4-F-phenyl))}-[1Nal]SY[dW]LRP-NHEt) | 25.7
6 | CCNC(=O)[C@@H]1CCCN1C(=O)[C@H](CCCN=C(N)N)NC(=O)[C@H](CC(C)C)NC(=O)[C@@H](Cc1c[nH]c2ccccc12)NC(=O)[C@H](Cc1ccc(O)cc1)NC(=O)[C@H](CO)NC(=O)[C@@H](Cc1cccc2ccccc12)NC(=O)CCc1ccc(F)cc1 [Compound 145, (3-9)[N-(3-(4-Fluorophenyl)propionyl) -D-1-Nal^3 -D-Trp^6 -Pro^9 NHEt]LHRH] ({Propanoyl(3-(4-F-phenyl))}-[d1Nal]SY[dW]LRP-NHEt) | 25.1
7 | CCNC(=O)[C@@H]1CCCN1C(=O)[C@H](CCCN=C(N)N)NC(=O)[C@H](CC(C)C)NC(=O)[C@@H](Cc1c[nH]c2ccccc12)NC(=O)[C@H](Cc1ccc(O)cc1)NC(=O)[C@H](CO)NC(=O)[C@H]1CCCN1C(=O)CCc1ccc(F)cc1 [Compound 147, (3-9)[N-(3-(4-Fluorophenyl)propionyl) -D-Pro^3 -D-Trp^6 -Pro^9 NHEt]LHRH] ({Propanoyl(3-(4-F-phenyl))}-[dP]SY[dW]LRP-NHEt) | 20
8 | CCNC(=O)[C@@H]1CCCN1C(=O)[C@H](CCCNC(=N)N)NC(=O)[C@H](CC(C)C)NC(=O)[C@@H](Cc1c[nH]c2ccccc12)NC(=O)[C@H](Cc1ccc(O)cc1)NC(=O)[C@H](CO)NC(=O)[C@@H]1CCCN1C(=O)CCc1ccc(F)cc1 [Compound 148, (3-9)[N-(3-(4-Fluorophenyl)propionyl) -Pro^3 -D-Trp^6 -Pro^9 NHEt]LHRH] ({Propanoyl(3-(4-F-phenyl))}-PSY[dW]LRP-NHEt) | 55

Results, then the compound that gave them:

Row | Ki [pM] | Compound
9 | 29.5 | CCNC(=O)[C@@H]1CCCN1C(=O)[C@H](CCCNC(=N)N)NC(=O)[C@H](CC(C)C)NC(=O)[C@@H](Cc1ccc(Cl)cc1)NC(=O)[C@H](Cc1ccc(O)cc1)NC(=O)[C@H](CO)NC(=O)[C@@H](Cc1c[nH]c2ccccc12)NC(=O)CCc1ccc(F)cc1 [Compound 149, (3-9)[N-(3-(4-Fluorophenyl)propionyl) -D-Trp3-D-4-Cl-Phe^6 -Pro^9 NHEt]LHRH] ({Propanoyl(3-(4-F-phenyl))}-[dW]SY[dPhe(4-Cl)]LRP-NHEt)
10 | 10.2 | CCNC(=O)[C@@H]1CCCN1C(=O)[C@H](CCCN=C(N)N)NC(=O)[C@H](CC(C)C)NC(=O)[C@@H](Cc1ccc(O)cc1)NC(=O)[C@H](Cc1ccc(O)cc1)NC(=O)[C@H](CO)NC(=O)[C@@H](Cc1c[nH]c2ccccc12)NC(=O)CCc1ccc(F)cc1 [Compound 150, (3-9)[N-(3-(4-Fluorophenyl)propionyl) -D-Trp^3 -D-Tyr^6 -Pro^9 NHEt]LHRH] ({Propanoyl(3-(4-F-phenyl))}-[dW]SY[dY]LRP-NHEt)
11 | 28.2 | CCNC(=O)[C@@H]1CCCN1C(=O)[C@H](CCCN=C(N)N)NC(=O)[C@H](CC(C)C)NC(=O)[C@@H](Cc1c[nH]c2ccccc12)NC(=O)[C@H](Cc1ccc(O)cc1)NC(=O)[C@H](CO)NC(=O)[C@@H](Cc1c[nH]c2ccccc12)NC(=O)CCc1ccc(F)c(F)c1 [Compound 151, (3-9)[N-(3-(3,4-diFluorophenyl)propionyl) -D-Trp^3,6 -Pro^9 NHEt]LHRH] ({Propanoyl(3-(3,4-F2Ph))}-[dW]SY[dW]LRP-NHEt)
12 | 21.4 | CCNC(=O)[C@@H]1CCCN1C(=O)[C@H](CCCN=C(N)N)NC(=O)[C@H](CC(C)C)NC(=O)[C@@H](CCCCNC(=O)c1cccnc1)NC(=O)[C@H](Cc1ccc(O)cc1)N(C)C(=O)[C@H](CO)NC(=O)[C@@H](Cc1c[nH]c2ccccc12)NC(=O)CCc1ccc(F)cc1F [Compound 152, (3-9)[N-(3-(2,4-diFluorophenyl)propionyl) -D-Trp^3 -NMeTyr^5 -D-Lys^6 (N-epsilon-nicotinyl)-Pro^9 NHEt]LHRH] ({Hydrocinnamoyl(2,4-F2)}-[dW]S[NMeY][dK](Nicotinoyl)LRP-NHEt)
13 | 24 | CCNC(=O)[C@@H]1CCCN1C(=O)[C@H](CCCN=C(N)N)NC(=O)[C@H](CC(C)C)NC(=O)[C@@H](CCCCNC(=O)c1cccnc1)NC(=O)[C@H](Cc1ccc(O)cc1)N(C)C(=O)[C@H](CO)NC(=O)[C@@H](Cc1c[nH]c2ccccc12)NC(=O)CCc1cccc(F)c1 [Compound 153, (3-9)[N-(3-(3-Fluorophenyl)propionyl) -D-Trp^3 -NMeTyr^5 -D-Lys^6 (N-epsilon-nicotinyl)-Pro ^9 NHEt]LHRH] (X4-[dW]S[NMeY][dK](Nicotinoyl)LRP-NHEt)
14 | 31.6 | CCNC(=O)[C@@H]1CCCN1C(=O)[C@H](CCCN=C(N)N)NC(=O)[C@H](CC(C)C)NC(=O)[C@@H](CCCCNC(=O)c1cccnc1)NC(=O)[C@H](Cc1ccc(O)cc1)N(C)C(=O)[C@H](CO)NC(=O)[C@@H](Cc1c[nH]c2ccccc12)NC(=O)CCc1ccc(Cl)cc1 [Compound 154, (3-9)[N-(3-(4-Chlorophenyl)propionyl) -D-Trp^3 -NMeTyr^5 -DLys^6 (N-epsilon-nicotinyl)-Pro ^9 NHEt]LHRH] ({Propanoyl(3-(4-Cl-Ph))}-[dW]S[NMeY][dK](Nicotinoyl)LRP-NHEt)
15 | 49 | CCNC(=O)[C@@H]1CCCN1C(=O)[C@H](CCCN=C(N)N)NC(=O)[C@H](CC(C)C)NC(=O)[C@@H](Cc1c[nH]c2ccccc12)NC(=O)[C@H](Cc1ccc(O)cc1)N(C)C(=O)[C@H](CO)NC(=O)[C@@H](Cc1c[nH]c2ccccc12)NC(=O)CCc1ccc(F)cc1F [Compound 155, (3-9)[N-(3-(2,4-diFluorophenyl)propionyl) -D-Trp^3,6 -NMeTyr^5 -Pro^9 NHEt]LHRH] ({Hydrocinnamoyl(2,4-F2)}-[dW]S[NMeY][dW]LRP-NHEt)
16 | 69.2 | CCNC(=O)[C@@H]1CCCN1C(=O)[C@H](CCCN=C(N)N)NC(=O)[C@H](CC(C)C)NC(=O)[C@@H](Cc1c[nH]c2ccccc12)NC(=O)[C@H](Cc1ccc(O)cc1)N(C)C(=O)[C@H](CO)NC(=O)[C@@H](Cc1c[nH]c2ccccc12)NC(=O)CCc1ccc(Cl)cc1 [Compound 156, (3-9)[N-(3-(4-Chlorophenyl)propionyl) -D-Trp^3,6 -NMeTyr^5 -Pro^9 NHEt]LHRH] ({Propanoyl(3-(4-Cl-Ph))}-[dW]S[NMeY][dW]LRP-NHEt)
17 | 47.9 | CCNC(=O)[C@@H]1CCCN1C(=O)[C@H](CCCNC(=N)N)NC(=O)[C@H](CC(C)C)NC(=O)[C@@H](Cc1c[nH]c2ccccc12)NC(=O)[C@H](Cc1ccc(O)cc1)N(C)C(=O)[C@H](CO)NC(=O)[C@@H](Cc1cccc2ccccc12)NC(=O)CCc1ccc(F)cc1 [Compound 157, (3-9)[N-(3-(4-Fluorophenyl)propionyl)-D -1-Nal^3 -NMeTyr^5 -D-Trp^6 -Pro^9 NHEt]LHRH] ({Propanoyl(3-(4-F-phenyl))}-[d1Nal]S[NMeY][dW]LRP-NHEt)
18 | 17.4 | CCNC(=O)[C@@H]1CCCN1C(=O)[C@H](CCCNC(=N)N)NC(=O)[C@H](CC(C)C)NC(=O)[C@@H](Cc1c[nH]c2ccccc12)NC(=O)[C@H](Cc1ccc(O)cc1)N(C)C(=O)[C@H](CO)NC(=O)[C@H](Cc1cccc2ccccc12)NC(=O)CCc1ccc(F)cc1 [Compound 158, (3-9)[N-(3-(4-Fluorophenyl)propionyl) -1-Nal^3 -NMeTyr^5 -DTrp^6 -Pro^9 NHEt]LHRH] ({Propanoyl(3-(4-F-phenyl))}-[1Nal]S[NMeY][dW]LRP-NHEt)
